Measured values taken from patent US20100197625A1, “SYNTHETIC LIPOPHILIC INOSITOL GLYCANS FOR TREATMENT OF CANCER AND GLUCOSE-METABOLISM DISORDERS” (priority 2006, published 2010).

Tests used:
[1] = tested on: human umbilical vein endothelial cells (HUVEC); assay: Cell death of human umbilical vein endothelial cells; assay type: cell-based; conditions: in 1 hour, with IG-1
[2] = tested on: native rat adipocytes; assay: Lipogenesis in native rat adipocytes; assay type: cell-based
Experimental: Adipocytes were isolated from epididymal fat pads dissected from freshly sacrificed male Long-Evans rats and incorporation of [6-^3H]-glucose into triglycerides in response to treatment with inositol glycans or insulin was measured as previously described (Chakraborty, N. and M. d'Alarcao, Bioorganic & Medicinal Chemistry 13 (2005) 6732-6741).

[3] = tested on: human normal cultured cells; assay: Proliferation of human normal cultured cells; assay type: cell-based; conditions: 1-100 μM, data not shown
Experimental: Human primary culture cells, dermal fibroblasts, epidermal keratinocytes and umbilical vein endothelial cells were purchased from Cell Applications (San Diego, Calif., USA) and cultured according to the manufacturer's instructions.
(§1) Cell proliferation assays were performed with the CellTiter 96 AQueous One Solution Cell Proliferation Assay kit according to the manufacturer's instructions (Promega, Madison, Wis., USA). Briefly, 5×10^3 cells/well in medium were placed onto 96-well plates. IGs were added to cellular cultures at final concentrations of 0, 1, 10, and 100 μM. Cultures were incubated for 3 days or 7 days and then added to 20 μL/well of CellTiter 96 AQueous One Solution Reagent, which contains a tetrazolium compound, 3-(4,5-dimethylthiazol-2-yl)-5-(3-carboxymethoxyphenyl)-2-(4-sulfophenyl)-2H-tetrazolium, an inner salt; MTS was added to the culture medium. After incubating the plate for 1 h in a CO2 incubator, absorbance at 490 nm was recorded with a 96-well plate reader.

[4] = tested on: human neuroblastoma (SH-SY5Y); assay: Cell proliferation / cell death assay, SH-SY5Y; assay type: cell-based; conditions: in 24 hours after treatment
Experimental: (§2) Human pancreatic cancer cell lines (Panc-1, MiaPaca2, BXPC3, Aspc 1), human hepatoma cell line (HuH7), human gastric cancer cell lines (AGS, MKN45), human colon cancer cell line (CoCM-1), human mammary cancer cell line (MCF-7), human neuroblastoma (SH-SY5Y), human prostate cancer cells (PC3), and murine Ehrlich ascites cancer cells and mouse 3T3-L1 fibroblasts were obtained from American Type Culture Collection (Rockville, Md., USA). The cancer cells were cultured in RPMI 1640 containing 10% fetal calf serum. Cultures were maintained at 37° C. in a humidified atmosphere of 5% CO2.
as §1, with “Cultures were incubated for 3 days or 7 days and then added to 20 μL/well” left out

[5] = tested on: human prostate cancer cells (PC3); assay: Cell proliferation / cell death assay, PC3; assay type: cell-based; conditions: PC3, in 24 hours after treatment
Experimental: as §2
as §1, with “Cultures were incubated for 3 days or 7 days and then added to 20 μL/well” left out

[6] = tested on: human hepatoma (HuH7); assay: Cell proliferation / cell death assay, HuH7; assay type: cell-based; conditions: HuH7, in 24 hours after treatment
Experimental: as §2
as §1, with “Cultures were incubated for 3 days or 7 days and then added to 20 μL/well” left out

[7] = tested on: Panc-1 cells; assay: Cell proliferation / cell death assay, Panc-1; assay type: cell-based, human; conditions: Panc-1, after 3 days (72 hours)
Experimental: as §2
as §1, with “Cultures were incubated for 3 days or 7 days and then added to 20 μL/well” left out

[8] = tested on: 3T3-L1 adipocytes; assay: Glycogen synthesis in 3T3-L1 adipocytes; assay type: cell-based, mouse; conditions: 100 μM
Experimental: (§3) 3T3-L1 fibroblasts were maintained in Dulbecco's modified Eagle's medium (DMEM) with 25 mM glucose plus 10% fetal bovine serum (FBS). Following 2 days at confluence, differentiation was initiated by the addition of DMEM containing 10% FBS, 167 nM insulin, […] dexamethasone, and 0.5 mM isobutylmethylxanthine. Three days later, the medium was replaced with DMEM plus 10% FBS and 167 nM insulin. After 2 more days, the medium was switched to DMEM plus 10% fetal bovine serum. Adipocytes were used 6-14 days after completion of the differentiation protocol, when >90% of the cells expressed the adipocyte phenotype. Prior to experiments, cells were washed two times with DMEM medium containing 5 mM glucose, 0.2% bovine serum albumin, 25 mM Hepes (pH 7.4), 100 units/ml penicillin, 100 units/ml streptomycin and 0.29 mg/ml glutamine, and were incubated in the same medium for 2 h. Glycogen and lipid synthesis were measured in 24-well dishes. […] The lipids were then extracted overnight with 5 ml of Betafluor (National Diagnostics), and glucose incorporation into lipid was measured by scintillation counting. 400 μl of the cell suspension was added to 600 μl of 50% KOH, and glycogen was precipitated and radioactivity was counted by a liquid scintillation counter

[9] = tested on: 3T3-L1 adipocytes; assay: Lipogenesis in 3T3-L1 adipocytes; assay type: cell-based, mouse; conditions: 100 μM
Experimental: as §3

SMILES | proliferation of human normal cultured cells [3] | stimulation of lipogenesis ([2]; native rat adipocytes, 40 μM) | cell death [7] | also measured
CCCCC/C=C\C/C=C\C/C=C\C/C=C\CCCC(=O)O[C@H](COCCCCCCCCCCCCCCCCCC)COP(=O)(O)O [AAPA2, 1-0-alkyl (18:0)-2-0-acyl-(20:4)-sn-glycerol-phosphate] |  |  |  | effect on rapid cell death of HUVEC induced by IG-1 [1]: inhibits this rapid cell death
CCCCCCCCCCCCCCCC(=O)O[C@@H]1C(O)C(O)[C@H](O)[C@H](O[C@H]2OC(CO)[C@@H](O)[C@H](O)C2N)C1OP(=O)(O)O (stereo partly drawn) [IG2, 2-Amino-2-deoxy-α-D-glucopyranosyl-(1→6)-2-palmitoyl-D-myo-inositol-1-phosphate] | no effect on the proliferation |  |  | EC50 ([2]; Adipocyte, rat isolated adipocytes, fit to receptor binding model, read-out: EC50 value for stimulation of lipogenesis): 2500 nM; Emax ([2]; Adipocyte, rat isolated adipocytes, stimulation of lipogenesis, read-out: Amax (maximal effect)): 37%; stimulation of lipogenesis ([2]; rat isolated adipocytes, concentration series): stimulated lipogenesis; cancer cell death [4]: induced cancer cell death; cancer cell death [5]: induced cancer cell death; cancer cell death [6]: induced cancer cell death
CCCCCCCCCCCCCCCC(=O)OC1[C@H](O)C(O)C(O)[C@H](O)[C@@H]1O[C@H]1OC(CO)[C@@H](O)[C@H](O)C1N (stereo partly drawn) [IG13, 2-Amino-2-deoxy-α-D-glucopyranosyl-(1→6)-1-palmitoyl-D-myo-inositol] | did not affect the proliferation | little or no lipogenesis | induced cancer cell death | 
CCCCCCCCCCCCCCCC(=O)O[C@H]1[C@@H](O)[C@H](O)[C@@H](O)[C@H](O)[C@H]1O[C@H]1O[C@H](CO)[C@@H](O)[C@H](O)[C@H]1N [IG14, 2-Amino-2-deoxy-α-D-glucopyranosyl-(1→3)-2-palmitoyl-D-myo-inositol] | did not affect the proliferation | little or no lipogenesis | induced cancer cell death | 
CCCCCCCCCCCCCCCC(=O)O[C@@H]1C(O)C(O[C@H]2OC(CO)[C@@H](O)[C@H](O)C2N)[C@@H](O)[C@@H](O)C1O (stereo partly drawn) [IG15, 2-Amino-2-deoxy-α-D-glucopyranosyl-(1→3)-1-palmitoyl-D-myo-inositol] | did not affect the proliferation | little or no lipogenesis | induced cancer cell death | glycogen synthesis [8]: stimulates; lipogenesis [9]: stimulates
